How the values were obtained:
Experiment in all cases: cell viability relative to DMSO (100%) and bortezomib (0%) controls; higher = more viable / less sensitive
Conditions in all cases: 72 h
[1] = tested on: HAP1 HDAC1 KO + HDAC1 H141A transgene
Experimental: (§1)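 HAP1 cells (wildtype, HDAC1/2/3 catalytically inactive H>A mutant lines in wildtype or knockout background, HDAC3 KO, or wildtype pre-treated 6 h with 1 uM MS-275 or JQ12) were seeded onto compound-containing 384-well plates with an 8-point 1:3 dose series. ATP was read by CellTiter-Glo after 72 h. Viability is normalised to plate DMSO wells (100%) and bortezomib positive-control wells (0%) after outlier removal. Duplicate screen.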

[2] = tested on: HAP1 HDAC2 KO + HDAC2 H142A transgene
Experimental: as §1

[3] = tested on: HAP1 HDAC3 KO + HDAC3 H135A transgene
Experimental: as §1

HAP1 HDAC3 KO = tested on: HAP1 HDAC3 KO
Experimental: as §1

[4] = tested on: HAP1 WT + HDAC1 H141A transgene
Experimental: as §1

[5] = tested on: HAP1 WT + HDAC2 H142A transgene
Experimental: as §1

[6] = tested on: HAP1 WT + HDAC3 H135A transgene
Experimental: as §1

[7] = tested on: HAP1 wildtype + JQ12 1 uM (6 h pretreatment)
Experimental: as §1

[8] = tested on: HAP1 wildtype + MS-275 1 uM (6 h pretreatment)
Experimental: as §1

HAP1 wildtype = tested on: HAP1 wildtype
Experimental: as §1

Nc1ncn([C@H]2C[C@H](O)[C@@H](CO)O2)c(=O)n1 [decitabine]
cell viability [%]
Conditions | HAP1 HDAC3 KO | HAP1 wildtype | [1] | [2] | [3] | [4] | [5] | [6] | [7] | [8]
0.0309 µM | 96.5 | 104 | 106 | 105.4 | 100 | 95.3 | 102 | 105 | 92.9 | 107
0.0926 µM | 103 | 96.6 | 117 | 104 | 111 | 96.2 | 109 | 117 | 98 | 82.5
0.277777778 µM | 125 | 110 | 93.4 | 89.47 | 115 | 68.1 | 80.5 | 116 | 72.8 | 71.3
0.833333333 µM | 155 | 141 | 51.5 | 37.5 | 148 | 27.2 | 44.3 | 153 | 50.9 | 40.43
2.5 µM | 144 | 115 | 24.3 | 10.8 | 148 | -11.5 | 5.61 | 119.46 | 15.9 | 9.68
7.5 µM | 112 | 60.8 | 0.764 | 5.27 | 96.2 | 0.523 | 4.31 | 49.5 | 1.97 | 9.13
22.5 µM | 123 | 50.1 | 5.07 | -5.41 | 114 | -11.1 | 0.159 | 58.5 | 3.44 | 2.79
67.5 µM | 147 | 47.2 | 19.6 | 9.97 | 108 | 1.73 | 7.07 | 61.2 | 1.41 | 10.8

CNC(=O)c1ccccc1Sc1ccc2c(/C=C/c3ccccn3)n[nH]c2c1 [Axitinib]
cell viability [%]
Conditions | HAP1 HDAC3 KO | HAP1 wildtype | [1] | [2] | [3] | [4] | [5] | [6] | [7] | [8]
0.0123 µM | 120 | 119 | 112 | 113 | 121 | 105 | 130 | 114 | 106 | 114
0.037 µM | 99.1 | 95.8 | 94.3 | 94 | 87 | 90.6 | 82.1 | 90.2 | 76.9 | 92.3
0.111111111 µM | 87.1 | 121 | 93 | 86.6 | 94 | 93.5 | 88.7 | 96.9 | 82.1 | 93.5
0.333333333 µM | 102 | 102 | 84.5 | 107 | 101 | 94.8 | 101 | 121 | 109 | 101
1 µM | 172 | 115 | 155 | 137 | 129 | 121 | 140 | 147 | 102 | 113
3 µM | 48.9 | 72 | 54 | 23.4 | 34.8 | 21.8 | 46.4 | 88.11 | 57.83 | 67.8
9 µM | 79.4 | 62 | 26.6 | -0.112 | 36.3 | 5.34 | 16.3 | 101 | 48.6 | 52.5
27 µM | 50.5 | 92.3 | 36 | 27.5 | 50.1 | 25.9 | 46.8 | 102 | 72.2 | 65.8

Cn1cc(-c2ccc(S(=O)(=O)n3ccc(/C=C/C(=O)Nc4ccccc4N)c3)cc2)cn1 [4SC-202]
cell viability [%]
Conditions | HAP1 HDAC3 KO | HAP1 wildtype | [1] | [2] | [3] | [4] | [5] | [6] | [7] | [8]
0.0123 µM | 120 | 105 | 137 | 125 | 130 | 125 | 141 | 140 | 123 | 168
0.037 µM | 95.7 | 88.7 | 106 | 108 | 85.68 | 85.5 | 78.14 | 89.7 | 113 | 112
0.111111111 µM | 127 | 120 | 109 | 157 | 109 | 110 | 135 | 128 | 133 | 121
0.333333333 µM | 122.3 | 98.9 | 111 | 93.36 | 104 | 117 | 117 | 133 | 98.5 | 123
1 µM | 11.2 | 22.3 | 7.79 | 82.3 | -3.64 | -2.58 | -0.0563 | 6.41 | 10.9 | 3.53
3 µM | -10.7 | -0.806 | -53.5 | -4.75 | -11 | -21.1 | -10.7 | -13.8 | -3.08 | -1.84
9 µM | -10.9 | -6.67 | -23.1 | -2.31 | -9.81 | -15.7 | -11.2 | -10.1 | -6.3 | -6.4
27 µM | -5.87 | 2.64 | 14.2 | -4.84 | -4.35 | -7.2 | -5.99 | -6.44 | -3.68 | 0.166

COc1cc(Nc2ncc3c(n2)-c2ccc(Cl)cc2C(c2c(F)cccc2OC)=NC3)ccc1C(=O)O [Alisertib]
cell viability [%]
Conditions | HAP1 HDAC3 KO | HAP1 wildtype | [1] | [2] | [3] | [4] | [5] | [6] | [7] | [8]
0.00617 µM | 94.9 | 103 | 95.2 | 103 | 103 | 101 | 86.2 | 92.9 | 79.6 | 107
0.0185 µM | 131 | 136 | 122 | 92.1 | 121 | 95.7 | 115 | 103 | 100 | 128
0.0556 µM | 117 | 100 | 109 | 103 | 112 | 95.2 | 99.5 | 123 | 95.3 | 108
0.166666667 µM | 70 | 110 | 52.1 | 31.8 | 70.2 | 71.2 | 62.6 | 147 | 34.2 | 43.2
0.5 µM | 111 | 96.5 | 53.3 | 51 | 79.4 | 37.1 | 49.8 | 105 | 51.9 | 72.44
1.5 µM | 114 | 83.2 | 38.4 | 54.5 | 82.3 | 15.1 | 21.9 | 101 | 51.7 | 61.6
4.5 µM | 103 | 74.2 | 33.1 | 36.2 | 71.6 | 22.1 | 17.5 | 90.6 | 54.4 | 53.2
13.5 µM | 116 | 73.4 | 19.6 | 21.8 | 89 | 2.6 | 12.7 | 108 | 52 | 46.8
